The supplement of paper PMC8612539
Converted amounts (≈) assume the structure as drawn.

How the values were obtained:
[1] = system: Enterococcus spp.; assay: minimum inhibitory concentration (MIC)
Protocol: (§1)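 Broth microdilution MIC (Sensititre BOPO7F bovine plate, CLSI methods) of 19 antimicrobials against field isolates of P. multocida, M. haemolytica, H. somni (deep nasopharyngeal swabs) and E. coli, Enterococcus spp. (rectal swabs) from weaned dairy heifers. Incubation 16-24 h at 35 C. MIC is the lowest concentration preventing visible growth. Values with <= or > lie at the tested range limits. Trimethoprim-sulfamethoxazole is given as the trimethoprim component of a 1:19 mixture.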

[2] = system: Histophilus somni; assay: minimum inhibitory concentration (MIC)
Protocol: as §1

CCCNC[C@]1(O)[C@H](C)O[C@@H](O[C@H]2[C@H](C)[C@@H](O[C@@H]3O[C@H](C)C[C@H](N(C)C)[C@H]3O)[C@](C)(O)C[C@@H](C)CN[C@H](C)[C@@H](O)[C@](C)(O)[C@@H](CC)OC(=O)[C@@H]2C)C[C@@]1(C)OC [Tulathromycin]
minimum inhibitory concentration [µg/mL]
Conditions | [1] | [2]
isolate (source animal id): 2 | ≤ 8 | –
isolate (source animal id): 3 | – | ≤ 8
isolate (source animal id): 4 | – | ≤ 8
isolate (source animal id): 7 | – | ≤ 8
isolate (source animal id): 14 | – | ≤ 8
isolate (source animal id): 15 | – | ≤ 8
isolate (source animal id): 17 | – | ≤ 8
isolate (source animal id): 18 | – | ≤ 8
isolate (source animal id): 20 | – | ≤ 8
isolate (source animal id): 23 | – | ≤ 8
isolate (source animal id): 35 | > 64 | –
isolate (source animal id): 42 | ≤ 8 | –
isolate (source animal id): 44 | ≤ 8 | –
isolate (source animal id): 45 | – | ≤ 8
isolate (source animal id): 53 | – | ≤ 8
isolate (source animal id): 79 | ≤ 8 | –
isolate (source animal id): 83 | – | ≤ 8
isolate (source animal id): 88 | ≤ 8 | ≤ 8
isolate (source animal id): 91 | ≤ 8 | –
isolate (source animal id): 92 | 16 (≈ 19.8 µM) | 16 (≈ 19.8 µM)
isolate (source animal id): 93 | – | ≤ 8
isolate (source animal id): 99 | – | ≤ 8
isolate (source animal id): 100 | – | 16 (≈ 19.8 µM)
isolate (source animal id): 105 | – | ≤ 8
isolate (source animal id): 107 | – | ≤ 8
isolate (source animal id): 108 | – | ≤ 8
isolate (source animal id): 109 | – | ≤ 8
isolate (source animal id): 111 | ≤ 8 | –
isolate (source animal id): 122 | > 64 | –
isolate (source animal id): 123 | ≤ 8 | –
isolate (source animal id): 133 | ≤ 8 | –
isolate (source animal id): 158 | > 64 | –
isolate (source animal id): 168 | ≤ 8 | –
isolate (source animal id): 169 | ≤ 8 | –
isolate (source animal id): 171 | ≤ 8 | –
isolate (source animal id): 175 | > 64 | –
isolate (source animal id): 177 | ≤ 8 | –
isolate (source animal id): 181 | ≤ 8 | –
isolate (source animal id): 182 | ≤ 8 | –
isolate (source animal id): 183 | ≤ 8 | –
isolate (source animal id): 187 | ≤ 8 | –
isolate (source animal id): 190 | ≤ 8 | –
isolate (source animal id): 194 | ≤ 8 | –
isolate (source animal id): 195 | ≤ 8 | –
isolate (source animal id): 197 | ≤ 8 | –
isolate (source animal id): 211 | ≤ 8 | –
isolate (source animal id): 214 | 16 (≈ 19.8 µM) | –
isolate (source animal id): 222 | ≤ 8 | –
isolate (source animal id): 223 | ≤ 8 | –
isolate (source animal id): 228 | > 64 | –
isolate (source animal id): 230 | > 64 | –
isolate (source animal id): 235 | > 64 | –
isolate (source animal id): 236 | ≤ 8 | –
isolate (source animal id): 239 | ≤ 8 | –
isolate (source animal id): 241 | > 64 | –
isolate (source animal id): 244 | ≤ 8 | –
isolate (source animal id): 246 | ≤ 8 | –
isolate (source animal id): 247 | > 64 | –
isolate (source animal id): 250 | ≤ 8 | –
isolate (source animal id): 252 | > 64 | –
isolate (source animal id): 268 | > 64 | –
isolate (source animal id): 282 | ≤ 8 | –
isolate (source animal id): 285 | > 64 | –
isolate (source animal id): 289 | ≤ 8 | –
isolate (source animal id): 290 | ≤ 8 | –
isolate (source animal id): 296 | ≤ 8 | –
isolate (source animal id): 298 | ≤ 8 | –
isolate (source animal id): 301 | ≤ 8 | –
isolate (source animal id): 310 | > 64 | –
isolate (source animal id): 320 | ≤ 8 | –
isolate (source animal id): 331 | ≤ 8 | –
isolate (source animal id): 333 | ≤ 8 | –
isolate (source animal id): 341 | > 64 | –
